Laboratory results published in the supplement of paper PMC10307832.

Tests used:
Test in all cases: relative viability (nuclei count vs DMSO), 5 days (fraction); higher = more cells survive
UMC-11 = tested on: UMC-11
Summary of the method: (§1)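 Five library-drug doses in √10 steps were combined with a fixed anchor-drug dose, or a single drug was given alone, by pin tool to lung cancer cell lines in 1536-well plates the day after seeding. Nuclei were stained and counted after 5 days. Relative viability is the nuclei count in treated wells over that in vehicle wells, taken as the median of duplicate plates.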

NCI-H23 = tested on: NCI-H23
Summary of the method: as §1

NCI-H1993 = tested on: NCI-H1993
Summary of the method: as §1

ABC-1 = tested on: ABC-1
Summary of the method: as §1

A-427 = tested on: A-427
Summary of the method: as §1

LC-2-ad = tested on: LC-2-ad
Summary of the method: as §1

NCI-H2228 = tested on: NCI-H2228
Summary of the method: as §1

NCI-H1734 = tested on: NCI-H1734
Summary of the method: as §1

HCC-15 = tested on: HCC-15
Summary of the method: as §1

SK-LU-1 = tested on: SK-LU-1
Summary of the method: as §1

NCI-H1650 = tested on: NCI-H1650
Summary of the method: as §1

NCI-H1793 = tested on: NCI-H1793
Summary of the method: as §1

EMC-BAC-2 = tested on: EMC-BAC-2
Summary of the method: as §1

COR-L23 = tested on: COR-L23
Summary of the method: as §1

NCI-H2023 = tested on: NCI-H2023
Summary of the method: as §1

NCI-H2405 = tested on: NCI-H2405
Summary of the method: as §1

NCI-H2009 = tested on: NCI-H2009
Summary of the method: as §1

ChaGo-K-1 = tested on: ChaGo-K-1
Summary of the method: as §1

HCC-366 = tested on: HCC-366
Summary of the method: as §1

HCC-78 = tested on: HCC-78
Summary of the method: as §1

NCI-H1944 = tested on: NCI-H1944
Summary of the method: as §1

HARA = tested on: HARA
Summary of the method: as §1

NCI-H838 = tested on: NCI-H838
Summary of the method: as §1

LK-2 = tested on: LK-2
Summary of the method: as §1

## COc1cc(N2CCC(C(N)=O)CC2)ccc1Nc1nc(N)c(Cl)c(Nc2ccccc2S(=O)(=O)C(C)C)n1 [HG-5-88-01] + CC(=O)c1c(C)c2cnc(Nc3ccc(N4CCNCC4)cn3)nc2n(C2CCCC2)c1=O [Palbociclib] (partner 0.5 µM)
UMC-11; first compound 0.04 µM
  relative viability: 0.321
UMC-11; first compound 0.1265 µM
  relative viability: 0.369
UMC-11; first compound 0.4 µM
  relative viability: 0.297
UMC-11; first compound 1.265 µM
  relative viability: 0.348
UMC-11; first compound 4 µM
  relative viability: 0.308
NCI-H23; first compound 0.04 µM
  relative viability: 0.507
NCI-H23; first compound 0.1265 µM
  relative viability: 0.549
NCI-H23; first compound 0.4 µM
  relative viability: 0.545
NCI-H23; first compound 1.265 µM
  relative viability: 0.378
NCI-H23; first compound 4 µM
  relative viability: 0.263
NCI-H1993; first compound 0.04 µM
  relative viability: 0.662
NCI-H1993; first compound 0.1265 µM
  relative viability: 0.69
NCI-H1993; first compound 0.4 µM
  relative viability: 0.793
NCI-H1993; first compound 4 µM
  relative viability: 0.564
ABC-1; first compound 0.04 µM
  relative viability: 0.667
ABC-1; first compound 0.1265 µM
  relative viability: 0.664
ABC-1; first compound 0.4 µM
  relative viability: 0.764
ABC-1; first compound 1.265 µM
  relative viability: 0.583
ABC-1; first compound 4 µM
  relative viability: 0.626
A-427; first compound 0.04 µM
  relative viability: 0.536
A-427; first compound 0.1265 µM
  relative viability: 0.541
A-427; first compound 0.4 µM
  relative viability: 0.541
A-427; first compound 1.265 µM
  relative viability: 0.517
A-427; first compound 4 µM
  relative viability: 0.463
LC-2-ad; first compound 0.04 µM
  relative viability: 0.471
LC-2-ad; first compound 0.1265 µM
  relative viability: 0.431
LC-2-ad; first compound 0.4 µM
  relative viability: 0.449
LC-2-ad; first compound 1.265 µM
  relative viability: 0.474
LC-2-ad; first compound 4 µM
  relative viability: 0.516
NCI-H2228; first compound 0.04 µM
  relative viability: 0.388
NCI-H2228; first compound 0.1265 µM
  relative viability: 0.388
NCI-H2228; first compound 0.4 µM
  relative viability: 0.319
NCI-H2228; first compound 1.265 µM
  relative viability: 0.247
NCI-H2228; first compound 4 µM
  relative viability: 0.231
NCI-H1734; first compound 0.04 µM
  relative viability: 0.367
NCI-H1734; first compound 0.1265 µM
  relative viability: 0.301
NCI-H1734; first compound 0.4 µM
  relative viability: 0.326
NCI-H1734; first compound 1.265 µM
  relative viability: 0.33
NCI-H1734; first compound 4 µM
  relative viability: 0.312
HCC-15; first compound 0.04 µM
  relative viability: 0.772
HCC-15; first compound 0.1265 µM
  relative viability: 0.792
HCC-15; first compound 0.4 µM
  relative viability: 0.643
HCC-15; first compound 1.265 µM
  relative viability: 0.724
HCC-15; first compound 4 µM
  relative viability: 0.432
SK-LU-1; first compound 0.04 µM
  relative viability: 0.363
SK-LU-1; first compound 0.1265 µM
  relative viability: 0.422
SK-LU-1; first compound 0.4 µM
  relative viability: 0.505
SK-LU-1; first compound 1.265 µM
  relative viability: 0.329
SK-LU-1; first compound 4 µM
  relative viability: 0.332
NCI-H1650; first compound 0.04 µM
  relative viability: 0.342
NCI-H1650; first compound 0.1265 µM
  relative viability: 0.391
NCI-H1650; first compound 0.4 µM
  relative viability: 0.327
NCI-H1650; first compound 1.265 µM
  relative viability: 0.298
NCI-H1650; first compound 4 µM
  relative viability: 0.223
NCI-H1793; first compound 0.04 µM
  relative viability: 0.301
NCI-H1793; first compound 0.1265 µM
  relative viability: 0.309
NCI-H1793; first compound 0.4 µM
  relative viability: 0.299
NCI-H1793; first compound 1.265 µM
  relative viability: 0.24
NCI-H1793; first compound 4 µM
  relative viability: 0.33
EMC-BAC-2; first compound 0.04 µM
  relative viability: 0.516
EMC-BAC-2; first compound 0.1265 µM
  relative viability: 0.543
EMC-BAC-2; first compound 0.4 µM
  relative viability: 0.48
EMC-BAC-2; first compound 1.265 µM
  relative viability: 0.405
EMC-BAC-2; first compound 4 µM
  relative viability: 0.438
COR-L23; first compound 0.04 µM
  relative viability: 0.383
COR-L23; first compound 0.1265 µM
  relative viability: 0.225
COR-L23; first compound 0.4 µM
  relative viability: 0.266
COR-L23; first compound 1.265 µM
  relative viability: 0.235
COR-L23; first compound 4 µM
  relative viability: 0.26
NCI-H2023; first compound 0.04 µM
  relative viability: 0.343
NCI-H2023; first compound 0.1265 µM
  relative viability: 0.355
NCI-H2023; first compound 0.4 µM
  relative viability: 0.287
NCI-H2023; first compound 1.265 µM
  relative viability: 0.259
NCI-H2023; first compound 4 µM
  relative viability: 0.212
NCI-H2405; first compound 0.04 µM
  relative viability: 0.515
NCI-H2405; first compound 0.1265 µM
  relative viability: 0.523
NCI-H2405; first compound 0.4 µM
  relative viability: 0.528
NCI-H2405; first compound 1.265 µM
  relative viability: 0.348
NCI-H2405; first compound 4 µM
  relative viability: 0.462
NCI-H2009; first compound 0.04 µM
  relative viability: 0.187
NCI-H2009; first compound 0.1265 µM
  relative viability: 0.281
NCI-H2009; first compound 0.4 µM
  relative viability: 0.242
NCI-H2009; first compound 1.265 µM
  relative viability: 0.216
NCI-H2009; first compound 4 µM
  relative viability: 0.224
ChaGo-K-1; first compound 0.04 µM
  relative viability: 0.931
ChaGo-K-1; first compound 0.1265 µM
  relative viability: 0.813
ChaGo-K-1; first compound 0.4 µM
  relative viability: 0.881
ChaGo-K-1; first compound 1.265 µM
  relative viability: 0.959
ChaGo-K-1; first compound 4 µM
  relative viability: 0.881
HCC-366; first compound 0.04 µM
  relative viability: 0.397
HCC-366; first compound 0.1265 µM
  relative viability: 0.41
HCC-366; first compound 0.4 µM
  relative viability: 0.356
HCC-366; first compound 1.265 µM
  relative viability: 0.41
HCC-366; first compound 4 µM
  relative viability: 0.465
HCC-78; first compound 0.04 µM
  relative viability: 0.465
HCC-78; first compound 0.1265 µM
  relative viability: 0.424
HCC-78; first compound 0.4 µM
  relative viability: 0.497
HCC-78; first compound 1.265 µM
  relative viability: 0.421
HCC-78; first compound 4 µM
  relative viability: 0.44
NCI-H1944; first compound 0.04 µM
  relative viability: 0.37
NCI-H1944; first compound 0.1265 µM
  relative viability: 0.351
NCI-H1944; first compound 0.4 µM
  relative viability: 0.36
NCI-H1944; first compound 1.265 µM
  relative viability: 0.322
NCI-H1944; first compound 4 µM
  relative viability: 0.31
HARA; first compound 0.04 µM
  relative viability: 0.234
HARA; first compound 0.1265 µM
  relative viability: 0.177
HARA; first compound 0.4 µM
  relative viability: 0.2
HARA; first compound 1.265 µM
  relative viability: 0.218
HARA; first compound 4 µM
  relative viability: 0.253
NCI-H838; first compound 0.04 µM
  relative viability: 0.189
NCI-H838; first compound 0.1265 µM
  relative viability: 0.207
NCI-H838; first compound 0.4 µM
  relative viability: 0.173
NCI-H838; first compound 1.265 µM
  relative viability: 0.177
NCI-H838; first compound 4 µM
  relative viability: 0.168
LK-2; first compound 0.04 µM
  relative viability: 0.772
LK-2; first compound 0.1265 µM
  relative viability: 0.582
LK-2; first compound 0.4 µM
  relative viability: 0.71
LK-2; first compound 4 µM
  relative viability: 0.519
